Here are results for two compounds from article PMC10334834, “A de novo dual-targeting supramolecular self-assembly peptide against pulmonary metastasis of melanoma” (Theranostics, 2023).

Entries after “also recorded” stand apart in the source; their conditions may differ. Like-named read-outs stand apart in the source and are kept apart here.

In general, IC50 refers to the midpoint of a concentration-inhibition curve.

The test system of data set [1] is β-catenin, np-β-catenin, c-Myc. As to the kind of experiment: Western blot, Wnt/β-catenin pathway proteins. Particulars: B16F10 cells, 24 h. In kind it is cell-based, mouse. Background: Immunoblotting shows a protein as a band on a membrane.
The subject of data set [2] is B16F10 cells. The data set can be described thus: Cell viability, Alamar blue.
Method: (§9) To explore the antitumor properties of HBB^plus@CA at the cellular level, we measured the viability of B16F10 cells after treatment with HBB^plus@CA.
(§10) Mouse melanoma cell line B16F10, mouse macrophage cell line RAW 264.7, and human leukemic
(§11) T-cell line Jurkat were obtained from the Chinese Academy of Science Cell Bank (Shanghai, China).
(§12) B16F10 and RAW 264.7 cells were maintained in DMEM medium, Jurkat was cultured in RPMI-
(§13) 1640 medium, and the above mediums were supplemented with 10% FBS, 100 U/mL penicillin,
(§14) and 100 μg/mL streptomycin. All cells were maintained at 37°C in an atmosphere of 5% CO2.
(§15) Melanoma cells B16F10 were inoculated uniformly in 96 empty plates according to 2000 cells.
(§16) After 24 h, different gradient concentrations of HBB plus@CA or CA, HBB, or RGDSP-X were
(§17) intervened at 37°C in an atmosphere of 5% CO 2 for 72 h. The in vitro cell viability was measured
(§18) using a standard Alamar blue (Thermo Fisher Scientific, China) assay in the B16F10 cell s.
In data set [3] the test system is Ki-67, β-catenin, np β-catenin, Cyclin D1, c-Myc, p-ERK1/2, N-cadherin, E-cadherin. As to the kind of experiment: Immunohistochemistry of tumor-bearing lung sections. Conditions: 4 mg/kg, six cycles, score I × A, n = 5, control scored 8.3.
Method: All samples were assayed in triplicate.
Construct a lung metastasis model of melanoma
The lung metastasis model o f melanoma was constructed as follows: B16F10 cells (5 × 10^5 cells per
100 µL) were transplanted into healthy C57BL/6 mice by intravenous injection at 5 -6 weeks of age.
After 3 days, the mice were randomly divided into the PBS control group, CA group (4 mg/kg),
HBBplus group (4 mg/kg), HBBplus@CA group (4 mg/ kg), HBBplus + CA group (4 mg/ kg) tail-vein
injected, every other day, summed six cycles. The experiment was terminated, and the mice were
euthanized. For histological examination, the tumor, liver, k idney, heart, spleen , and lung tissues
were fixed with formaldehyde, dehydrated, sliced into 4 μm sections, and subjected to H&E or
immunohistochemical staining.
H&E and immunohistochemistry (IHC) staining
Tumor-bearing lungs and primary organ tissues were dissected and immersed in formalin solution.
Then they were paraffin-embedded, sectioned with a 4 μm thick. Nextly, the sections were stained
with hematoxylin-eosin (H&E) according to standard histopathological techniques. Besides, under
conventional immunohistochemical staining, the expression of Ki -67 (Proteintech, USA; 1: 400),
β-catenin (Thermo Fisher, China; 1: 2000), np β-catenin (Cell Signaling Technology, USA; 1: 100), […]
1: 500) in tumor-bearing lungs sections were detected. […]
Data set [4] is described as follows: Acute toxicity test in vivo. Conditions: healthy C57BL/6 mice; for body weight: every other day, six cycles.
Data set [5] relates to B16F10 pulmonary metastasis of melanoma. As to the kind of experiment: Lung metastasis model of melanoma. It is filed as in vivo. Conditions: 5×10^5 B16F10 cells i.v., 4 mg/kg every other day, six cycles, day 24, n = 5, mean ± s.d.; PBS group 94 ± 41.
The subject of data set [6] is B16F10 cells.
Method: as §9, §10, §11, §12, §13, §14, §15, §16, §17, §18
Data set [7] deals with B16F10 cells. As to the kind of experiment: Cell clone formation assay. In kind it is cell-based, mouse. Conditions: 7 days of drug treatment.
Data set [8] concerns B16F10 cells. As to the kind of experiment: Scratch wound healing assay. In kind it is cell-based, mouse. Particulars: 60 μM, 24 h, 1% FBS; for migration rate: Image J, triplicate. On the procedure: (§1) As a next step, we tested the ability of supramolecular peptides to prevent tumor cell migration and invasion. […] Meanwhile, a scratch wound was harvested as part of the migration assay, and the healing process was observed. Based on a digital image, the areas of scratching without cells immediately following scratching and those of scratching without cells after the assay was calculated. […] We observed the same results in the transwell migration assay. Furthermore, tumor cells' invasive abilities play a critical role in metastasis. Using a transwell invasion assay (Figure 4G), we assessed the ability of HBB^plus@CA to inhibit tumor cell invasion.
(§2) Scratch wound healing assay […]
(§3) monolayer with a pipette tip (100 μL). The monolayer membrane was washed with PBS three times, […]
(§4) Detection Kit (BD Falco, China). […]
(§5) for 24 h at a concentration of 40 μM.
(§6) FITC-labeled HBB, HBBplus, and […]
(§7) it for 10 min. […] DAPI (Sigma-Aldrich,
(§8) Finally, a super-resolution confocal microscope was used to observe the cell uptake situation.

Data set [9] has as its system B16F10 cells. The data set can be described thus: Transwell migration and invasion assays. It is filed as cell-based, mouse. Particulars: 30 μM, 24h-48h. On the procedure: as §1
performed on a Talos F200X.
The hydrodynamic size distribution (1
Zetasizer Nano ZS system). The surface chemical structure of modified nanocrystals was evaluated
(Shimadzu 3000 spectrophotometer). The structural identification of modified nanocrystals was
and 100 μg/mL streptomycin.
The in vitro cell viability was measured
containing 15% FBS medium for 24h -48h. Cells that migrated or invaded across the membrane

Data set [10] can be described thus: Self-assembly into nanospheres observed by TEM. In kind it is physicochemical. Conditions: peptide alone without CA. An excerpt:
The hydrophobic tails of HBB^plus interact and gather together, forming a hydrophobic core. At the same time, the hydrophilic head interacts with water molecules to wrap around the core, forming a stable micelle structure. The hydrophobic drug CA will be encapsulated in the hydrophobic area of the micelles during micellar assembly. CA is immobilized inside the micelles by interacting with the hydrophobic tails of the micelles (hydrophobic interactions and hydrogen bonding) (Figure 1D). We used the GROMACS 2018.3 software package and combined it with the MARTINI coarse-grained model (version 2.2) to conduct dynamics simulations on a system composed of 24× HBB^plus peptide molecules and 100× CA molecules in an aqueous solution during 5000 ns. […] To verify it, CA was mixed with HBB^plus in mass ratios ranging from 4:1 to 0.25:1. […] Furthermore, there was a strong positive correlation between the concentration of CA and particle size (Figure 1E). […]
Zetasizer Nano ZS system). The surface chemical structure of modified nanocrystals was evaluated […]
The in vitro cell viability was measured […]

Another data set deals with p-ERK1/2. The data set can be described thus: Western blot, p-ERK1/2. In kind it is cell-based, mouse. Conditions: B16F10 cells.
The test system of data set [11] is B16F10 cells. The data set can be described thus: Cell apoptosis by flow cytometry (FITC Annexin V/PI). In kind it is cell-based, mouse. Particulars: 40 μM, 24 h. On the procedure: as §2, §3, §4, §5, §6, §7, §8
A general note: Flow cytometry measures light scatter and fluorescence of single cells or particles in a stream.

A further data set relates to B16F10 lung metastasis. As to the kind of experiment: Ex vivo fluorescence biodistribution in mice with pulmonary metastatic melanoma. Conditions: Cy5-SE labelled, i.v. 200 μL (1 mg/mL), tumor-bearing C57BL/6 mice, organs at 12 h and 24 h.

Turning to `CC(C)c1cc2c(c(O)c1O)[C@@]1(C(=O)O)CCCC(C)(C)[C@@H]1CC2` [CA, carnosic acid], in data set [1], the “β-catenin, np-β-catenin and c-Myc protein expression” value was “significantly downregulated”. Also, the IC50 in the data set on B16F10 cells [2] (Mus musculus, B16-F10, 72 h, read-out: IC50 (cell viability)) is 29.2 ± 4.68 µM. In addition, the “Ki-67 expression score (IHC)” value in data set [3] is listed as 5.7. The “renal function tests (urea nitrogen, creatinine)” value in [4] (4-40 mg/kg) is “did not cause severe nephrotoxicity”. Further, the “RBC, WBC, PLT, HGB, GRAN, Mon, Lymph in blood” value in data set [4] (4-40 mg/kg, n = 3/group, versus controls) is “neither HBB^plus@CA nor CA affected”. Also, the body weight result in data set [4] (5× doses (20 mg/kg)) and in data set [4] (10× doses (40 mg/kg)) was “notable weight loss” throughout. Besides, the “ALT and AST (liver function)” value in data set [4] (10× doses (40 mg/kg)) is “elevations of ALT and AST”. For the same compound, the “H&E staining of lung tissue” value in data set [4] (low-dose and high-dose groups) is reported as “inflammatory cell infiltration”. In data set [4] (up to high dose, ELISA, n = 3/group), the “TNF-α, IFN-γ and EPO levels of peripheral blood” value is recorded as “did not significantly increase”. Further, the “number of metastatic lung foci” value in data set [5] is 37 ± 10 per lung. Also, the “cytotoxicity / antiproliferative activity” value in the data set with B16F10 cells [6] is recorded as “concentration-dependent cytotoxicity”. Moreover, the clone formation result in the data set with B16F10 cells [7] is on record as “significantly reduced the number of clones”. Moreover, the migration rate with B16F10 cells [8] is on record as ~ 27%.

RGDSPENPRLLGNVLVCVLA [HBB^plus]: the “transwell migration and invasion” value with B16F10 cells [9] was “inhibited the migration”. Also, in the data set with B16F10 cells [2] (B16F10 cells, 72 h, Alamar blue), the “cytotoxicity / antiproliferative activity” value is given as “more potent antiproliferative activity”. Besides, in data set [3], the “Ki-67 expression score (IHC)” value was 6.2. Further, in data set [10], the self-assembly into nanospheres result was “incapable of undergoing such a process”. Also, in the data set on p-ERK1/2, the “level of p-ERK1/2” value was “reduced the level; also recorded: significantly down-regulated”. In addition, the “number of metastatic lung foci” value in data set [5] amounted to 32 ± 12 per lung. Further, the “apoptosis of tumor cells” value with B16F10 cells [11] was “significantly effective in increasing the apoptosis”. Also, the clone formation result in the data set on B16F10 cells [7] was “more potent antiproliferative activity”. Also, the “tumor accumulation (biodistribution)” value in the data set on B16F10 lung metastasis was “superior tumor accumulation compared to HBB”. For the same compound, in the data set with B16F10 cells [8], the “migration in scratch assay” value is “inhibited the migration” and the migration rate was ~ 36%.
